Source: patent US20250276972A1, “COMPOUNDS AS CASEIN KINASE INHIBITORS” (GRITSCIENCE BIOPHARMACEUTICALS CO.,LTD., priority 2020, published 2025)

Key:
[1] = target: T1, CK1δ (Homo sapiens, UniProt P48730); assay: CK1δ inhibition (EC50); Bmal1-dLuc or Per2-dLuc U2OS luminescence rhythm period assay; format: cell-based; settings: Table 3
T1 construct: endogenous in cells; host or cells: Bmal1-dLuc or Per2-dLuc U2OS cells
Procedure: Bmall-dLuc or Per2-dLuc U2OS cells were suspended in the culture medium (DMEM supplemented with 10% fetal bovine serum, 0.29 mg/mL L-glutamine, 100 units/mL penicillin, and […] streptomycin) and plated onto 96-well white solid-bottom plates at 200 μL (10,000 cells) per well. After 2 days, 100 μL of the explant medium (DMEM supplemented with 2% B27, 10 mM HEPES, 0.38 mg/mL sodium bicarbonate, 0.29 mg/mL L-glutamine, 100 units/mL penicillin, […], 0.1 mg/mL gentamicin, and 1 mM luciferin, pH 7.2) was dispensed to each well, followed by the application of 1 μL of a compound of the present application (dissolved in DMSO; final concentration was 0.7% in DMSO). The plate was covered with an optically clear film and set to microplate reader (Infinite M200, Tecan).

[2] = Intrinsic clearance in liver microsomes (mouse); format: in vitro ADME; settings: Mouse liver microsomes 0.5 mg/mL, 2 μM compound, 37° C.; for microsomal CLint at 2 μM: read-out: in vitro CLint (μL/min/mg protein); for half-life at 2 μM: read-out: in vitro t1/2
Procedure: (§1) • 1. The master solution was prepared according to Table 5.
(§2) • 2. Three separated experiments were performed as follows. a) With NADPH: 10 μL of 20 mg/mL liver microsomes and 40 μL of 10 mM NADPH were added to the incubations. The final concentrations of microsomes and NADPH were 0.5 mg/mL and 1 mM, respectively. b) Without NADPH: 10 μL of 20 mg/mL liver microsomes and 40 μL of ultra-pure H2O were added to the incubations. The final concentration of microsomes was 0.5 mg/mL. c) Heat-inactivated microsomes without NADPH: 10 μL of 20 mg/mL heat-inactivated liver microsomes and 40 μL of ultra-pure H2O were added to the incubations. The final concentration of microsomes was 0.5 mg/mL. • 3. The reaction was started with the addition of 4 μL of 200 μM test compound solution or control compound solution at the final concentration of 2 μM and carried out at 37° C. • 4. Aliquots of 50 μL were taken from the reaction solution at 0, 15, 30, 45 and 60 min. […] Samples were centrifuged at 3, 220 g for 40 minutes. […] Data Analysis
(§3) Peak areas were determined from extracted ion chromatograms. The slope value, k, was determined by linear regression of the natural logarithm of the remaining percentage of the parent drug vs. incubation time curve.
(§4) The in vitro half-life (in vitro t1/2) was determined from the slope value:
(§5) Conversion of the in vitro t1/2 (min) into the in vitro intrinsic clearance (in vitro CLint, in μL/min/mg protein) was done using the following equation (mean of duplicate determinations): […]

[3] = Intrinsic clearance in liver microsomes (human); format: in vitro ADME; settings: Human liver microsomes 0.5 mg/mL, 2 μM compound, 37° C.; for microsomal CLint at 2 μM: read-out: in vitro CLint (μL/min/mg protein); for half-life at 2 μM: read-out: in vitro t1/2
Procedure: as §1, §2, §3, §4, §5

T1 sequence (P48730 whole entry): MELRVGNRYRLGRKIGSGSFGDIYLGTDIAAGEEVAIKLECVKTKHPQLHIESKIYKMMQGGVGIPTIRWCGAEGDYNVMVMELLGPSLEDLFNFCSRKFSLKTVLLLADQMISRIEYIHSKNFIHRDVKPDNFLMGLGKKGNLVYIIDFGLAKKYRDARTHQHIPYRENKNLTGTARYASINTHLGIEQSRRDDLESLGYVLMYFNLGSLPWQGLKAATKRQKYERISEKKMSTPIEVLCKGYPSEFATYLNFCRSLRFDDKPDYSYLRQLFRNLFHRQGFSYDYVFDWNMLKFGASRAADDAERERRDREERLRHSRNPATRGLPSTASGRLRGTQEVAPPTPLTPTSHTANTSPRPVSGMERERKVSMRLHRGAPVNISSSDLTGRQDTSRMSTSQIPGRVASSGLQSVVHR

SMILES	EC50 [1] [µM]	microsomal CLint at 2 μM [2] [µL/min/mg]	half-life at 2 μM [2] [min]	microsomal CLint at 2 μM [3] [µL/min/mg]	half-life at 2 μM [3] [min]
CN1CCn2nc(-c3ccc(F)cc3)c(-c3ccnc(NC(=O)Cc4ccc(F)cc4)c3)c2C1 [Compound I-80, 2-(4-fluorophenyl)-N-(4-(2-(4-fluorophenyl)-5-methyl-4,5,6,7-tetrahydropyrazolo [1,5-a]pyrazin-3-yl)pyridin-2-yl)acetamide]	0.1	552	2.51	112	12.3
CC(C)C(=O)Nc1cc(-c2c(-c3ccc(F)cc3)nn3c2CN(C)CC3)ccn1 [Compound I-102, N-(4-(2-(4-fluorophenyl)-5-methyl-4,5,6,7-tetrahydropyrazolo[1,5-a]pyrazin-3-yl)pyridin-2-yl)isobutyramide]	0.7	611	2.27	29.9	46.4
CC(=O)Nc1cc(-c2c(-c3ccc(F)cc3)nn3c2CN(CCF)CC3)ccn1 [Compound I-42, N-(4-(5-(2-fluoroethyl)-2-(4-fluorophenyl)-4,5,6,7-tetrahydropyrazolo[1,5-a]pyrazin-3-yl)pyridin-2-yl)acetamide]	0.4	975	1.42	47.4	29.2
Cc1cc(-c2c(-c3ccc(F)cc3)nn3c2CN(Cc2ncccn2)CC3)ccn1 [Compound I-9, 2-(4-fluorophenyl)-3-(2-methylpyridin-4-y)-5-(pyrimidin-2-ylmethyl)-4,5,6,7-tetrahydropyrazolo[1,5-a]pyrazine]		43.4	31.9	12.4	112
CC(=O)Nc1cc(-c2c(-c3ccc(F)cc3)nn3c2CN(C2CCC2)CC3)ccn1 [Compound I-33, N-(4-(5-cyclobutyl-2-(4-fluorophenyl)-4,5,6,7-tetrahydropyrazolo[1,5-a]pyrazin-3-yl)pyridin-2-yl)acetamide]	0.5	1040	1.33	274	5.06
CCC(C)C(=O)Nc1cc(-c2c(-c3ccc(F)cc3)nn3c2CN(C)CC3)ccn1 (centres unmarked) [Compound I-100, N-(4-(2-(4-fluorophenyl)-5-methyl-4,5,6,7-tetrahydropyrazolo[1,5-a]pyrazin-3-yl)pyridin-2-yl)-2-methylbutanamide]	0.6	465	2.98	68.2	20.3
CCC(=O)Nc1cc(-c2c(-c3ccc(F)cc3)nn3c2CN(C)CC3)ccn1 [Compound I-103, N-(4-(2-(4-fluorophenyl)-5-methyl-4,5,6,7-tetrahydropyrazolo[1,5-a]pyrazin-3-yl)pyridin-2-yl)propionamide]	0.5	679	2.04	49.8	27.8
CC(=O)Nc1cc(-c2c(-c3ccc(F)cc3)nn3c2CN(C2CC(O)C2)CC3)ccn1 (centres unmarked) [Compound I-44, N-(4-(2-(4-fluorophenyl)-5-(3-hydroxycyclobutyl)-4,5,6,7-tetrahydropyrazolo[1,5-a]pyrazin-3-yl)pyridin-2-yl)acetamide]	0.8	20.5	67.5	4.98	278
Cc1cc(-c2c(-c3ccc(F)cc3)nn3c2CN(CCO)CC3)ccn1 [Compound I-11, 2-(2-(4-fluorophenyl)-3-(2-methylpyridin-4-yl)-6,7-dihydropyrazolo[1,5-a]pyrazin-5. (4H)-yl)ethan-1-ol]		16.3	84.9	8.74	159
CS(=O)(=O)N1CCn2nc(-c3ccc(F)cc3)c(-c3ccnc(N)c3)c2C1 [Compound I-25, 4-(2-(4-fluorophenyl)-5-(methylsulfonyl)-4,5,6,7-tetrahydropyrazolo[1,5-a]pyrazin-3-yl)pyridin-2-amine]	0.67				
